# In patent EP0373195B1, “COMPOSITION FOR INCREASING MELANIN CONTENT OF MELANOCYTES IN-VIVO AND IN-VITRO AND METHODS FOR THE IN-VITRO USE THEREOF” (TRUSTEES OF BOSTON UNIVERSITY, priority 1988, dated 1989):
# Columns and labels:
# S91 melanoma cells [1] = assay: Melanin content of S91 melanoma cells in culture; assay type: cell-based, murine; conditions: DMEM with 2% FBS, 37°C, 7 days
# Protocol: To determine melanin content, the remaining suspension was centrifuged for 5 minutes in a microcentrifuge; the supernatant discarded; and the resulting cell pellet dissolved in 0.1 ml of a 1 M NaOH which was subsequently diluted with 0.4 ml of water. Melanin concentration was calculated by determination of optical density at 475 nanometers; and values extrapolated by comparison with a standard curve of determinations for synthetic melanin, a measurement of melanogenesis which correlates extremely well with ¹⁴C-DOPA incorporation and with tyrosinase activity [Friedmann and Gilchrest, J. Cell. Physiol. 133:88-94 (1987)]. Melanin values were expressed as total melanin per culture; or as melanin content per cell; or as percent of untreated controls.
# This experimental series was performed to evaluate the effect of a DAG on melanocytes derived from animal sources, rather than humans. In this experimental series, murine S91 melanoma cells were grown and maintained in culture using conventional techniques [Friedmann and Gilchrest, J. Cell. Physiol. 133:88-94 (1987)]. The grown S91 melanoma cells were then combined with 100 »M of the preferred DAG, 1-oleoyl-2-acetyl-glycerol; or with 100 »M of 3-isobutyl-1-methylxanthine (IBMX). Each chemical agent was combined with the S91 melanoma cells in Dulbecco's […] Eagle's Medium containing 2% FBS at 37°C for 7 days. […]
# human melanocytes [2] = assay: Melanocyte bioassay: melanin content of cultured human melanocytes; assay type: cell-based; conditions: for melanization / melanin content per human melanocyte (Fig. 3): DAG added after pretreatment with 100 nM TPA for 24 hours, then 6 days
# Protocol: Melanocytes were seeded at 2 x 10^4 cells per 35 mm dish and combined with KPGM supplemented with 2% FBS and 100 ug/ml of BHE, now designated as complete melanocyte medium. After 24 hours incubation at 37 C, the grown melanocyte cultures, in duplicate or triplicate, received one of the following: free complete melanocyte medium; or supplemented whole KDCM. Each melanocyte culture was then incubated for 6-7 days at 37 C. Subsequently, each melanocyte culture was harvested and the cell number per dish empirically determined. Each melanocyte culture was washed with a 0.4 mM EDTA in PBS; treated with 1 ml of a mixture containing 0.13% trypsin and 0.2 mM EDTA; then incubated approximately 10 minutes at 37 C; followed by addition of 1 ml of PBS. Subsequently, a 0.5 ml aliquot of each resulting suspension was diluted to 10 ml total volume using isotonic saline and processed using a particle counter (Model ZM, Colter Science). To determine melanin content, the remaining suspension was centrifuged for 5 minutes in a microcentrifuge; the supernatant discarded; and the resulting cell pellet dissolved in 0.1 ml of a 1 M NaOH which was subsequently diluted with 0.4 ml of water. Melanin concentration was calculated by determination of optical density at 475 nanometers; and values extrapolated by comparison with a standard curve of determinations for synthetic melanin, a measurement of melanogenesis which correlates extremely well with 14C-DOPA incorporation and with tyrosinase activity [[…] and […]. Cell. Physiol. 133:88-94 (1987)]. Melanin values were expressed as total melanin per culture; or as melanin content per cell; or as percent of untreated controls. […] Neonatal foreskins obtained within two hours of elective circumcision were the source of human melanocytes. The epidermis was separated from the dermis after overnight incubation in 0.25% trypsin. Melanocytes were established in primary culture according to the procedure of […] et al. [J. Invest. Dermatol. 83:370-376 (1984)]. The preferred DAG was combined with human melanocytes in complete melanocyte medium and incubated together for a period of 6 days at 37°C. […] At an optimal concentration of 100 »M, this DAG produced an average of a 4 fold increase in cellular melanin content per cell over the untreated control. […] Initially, the human melanocytes were obtained and grown as previously described. Subsequently, the cultured human melanocytes were combined with 100 nM of TPA in melanocyte medium and incubated at 37°C for 24 hours. The DAG was then added and the culture incubated again for 6 days. The melanin content of the cells was then evaluated in accordance with the procedure as previously described herein. The results are graphically illustrated by Figs. 2 and 3 respectively.
# S91 melanoma cells [3] = assay: Proliferation of S91 melanoma cells in culture; assay type: cell-based, murine; conditions: DMEM with 2% FBS, 37°C, 7 days
# Protocol: (§1) Melanocytes were seeded at 2 x 10⁴ cells per 35 mm dish and combined with KPGM supplemented with 2% FBS and 100 ug/ml of BHE, now designated as complete melanocyte medium. After 24 hours incubation at 37 C, the grown melanocyte cultures, in duplicate or triplicate, received one of the following: free complete melanocyte medium; or supplemented whole KDCM. Each melanocyte culture was then incubated for 6-7 days at 37 C. Subsequently, each melanocyte culture was harvested and the cell number per dish empirically determined. Each melanocyte culture was washed with a 0.4 mM EDTA in PBS; treated with 1 ml of a mixture containing 0.13% trypsin and 0.2 mM EDTA; then incubated approximately 10 minutes at 37 C; followed by addition of 1 ml of PBS. Subsequently, a 0.5 ml aliquot of each resulting suspension was diluted to 10 ml total volume using isotonic saline and processed using a particle counter (Model ZM, Colter Science).
# This experimental series was performed to evaluate the effect of a DAG on melanocytes derived from animal sources, rather than humans. In this experimental series, murine S91 melanoma cells were grown and maintained in culture using conventional techniques [Friedmann and Gilchrest, J. Cell. Physiol. 133:88-94 (1987)]. […]
# human melanocytes [4] = assay: Melanocyte bioassay: cell number / proliferation of cultured human melanocytes; assay type: cell-based
# Protocol: as §1
# (§2) A first experimental series was performed which utilized human melanocytes combined with the preferred DAG, 1-oleoyl-2-acetyl-glycerol, selected for its efficiency of intercalating into melanocyte membranes. Neonatal foreskins obtained within two hours of elective circumcision were the source of human melanocytes. The epidermis was separated from the dermis after overnight incubation in 0.25% trypsin. Melanocytes were established in primary culture according to the procedure of Gilchrest et al. [J. Invest. Dermatol. 83:370-376 (1984)]. The preferred DAG was combined with human melanocytes in complete melanocyte medium and incubated together for a period of 6 days at 37°C.
# (§3) A second experimental series was conducted in which the cultured human melanocytes were first pretreated with tetradecanoyl phorbol-13-acetate (hereinafter "TPA") at a concentration of 100 nM. Initially, the human melanocytes were obtained and grown as previously described. Subsequently, the cultured human melanocytes were combined with 100 nM of TPA in melanocyte medium and incubated at 37°C for 24 hours. The DAG was then added and the culture incubated again for 6 days. The melanin content of the cells was then evaluated in accordance with the procedure as previously described herein.
# human melanocytes [5] = assay: Dendricity (morphology) of cultured human melanocytes; assay type: cell-based
# Protocol: In certain instances, phase contrast micrographs were taken using an inverted microscope after the cultures were washed once with phosphate buffered saline.
# as §2, §3
# [6] = DAG added after pretreatment with 100 nM TPA for 24 hours, then 6 days
# [7] = agent alone (DAG 6 days; TPA 100 nM pretreatment)
Compound,melanin production in S91 melanoma cells in comparison to controls (Fig. 5) (S91 melanoma cells [1]; DAG),melanization / melanin content per human melanocyte (Fig. 3) (human melanocytes [2]; listed as DAG),melanization / melanin content per human melanocyte (Fig. 3) (human melanocytes [2]; listed as diacylglycerol),"fold induction at 100 µM (human melanocytes [2]; Homo sapiens, 144 h, optimal concentration of 100 »M, 6 days at 37°C in complete melanocyte medium, read-out: increase in cellular melanin content per cell over the untreated control)","melanin content (Figs. 1a and 1b) (human melanocytes [2]; concentration levels 25 - 200 »M, 6 days at 37°C)","melanization (human melanocytes [2]; diacylglycerol alone, second experimental series, 6 days)",proliferation of S91 melanoma cells (Fig. 4) (S91 melanoma cells [3]; concentrations ranging from 1-200 uM),"melanocyte proliferation or growth (Figs. 1a and 1b) (human melanocytes [4]; 25 - 200 »M, 6 days at 37°C)",human melanocyte proliferation (Fig. 2) (human melanocytes [4]; [6]),human melanocyte proliferation (Fig. 2) (human melanocytes [4]; [7]),induction of dendricity (human melanocytes [5]; [6]),"dendricity of human melanocytes (human melanocytes [5]; DAG alone, 6 days at 37°C)",melanin production in S91 melanoma cells (Fig. 5) (S91 melanoma cells [1]; 100 »M),proliferation / cellular growth of S91 melanoma cells (Fig. 4) (S91 melanoma cells [3]; 100 »M),"dendricity (human melanocytes [5]; TPA alone, 100 nM)"
CCCCCCCC/C=C\CCCCCCCC(=O)OCC(CO)OC(C)=O (stereo not shown) [1-oleoyl-2-acetyl-glycerol],consistently failed to induce any substantial increases in melanin production,major and significant increases in melanin content per human melanocyte as a function of TPA pretreatment in amounts meaningfully greater than that of the chosen DAG analogue alone,equally effective at melanization,4,clear dose dependent response to increased melanin content,induced increased melanization,effectively failed to induce proliferation,no meaningful effects on melanocyte proliferation or growth,"neither the DAG analogue, nor the pretreatment with TPA, nor their combination has any substantial effect","neither the DAG analogue, nor the pretreatment with TPA, nor their combination has any substantial effect",equally effective at melanization and the induction of dendricity,did not increase the dendricity,–,–,–
"CC(C)Cn1c(=O)n(C)c(=O)c2[nH]cnc21 [IBMX, 3-isobutyl-1-methylxanthine, reference compound]",–,–,–,–,–,–,–,–,–,–,–,–,caused a major increase in melanin production,failed to produce any cellular growth,–
"tetradecanoyl phorbol-13-acetate [TPA, reference compound]",–,–,–,–,–,–,–,–,–,"neither the DAG analogue, nor the pretreatment with TPA, nor their combination has any substantial effect",–,–,–,–,induced extreme dendricity
